Reference: US20250145589A1, “PYRIDINE DERIVATIVE AND USE THEREOF” (SICHUAN HUIYU PHARMACEUTICAL CO., LTD., priority 2021, published 2025)
Like-named read-outs stand apart in the source and are kept apart here.

Columns and labels:
[1] = test system: NCI-H358 cells (KRAS G12C mutant); assay: NCI-H358 cell proliferation inhibition (CellTiter-Glo); assay type: cell-based; details: Homo sapiens, NCI-H358, 72 h; H358 cells (G12C mutation), 3 days, Table 6; read-out: NCI-H358 (IC50)
[2] = test system: MIA PaCa-2 cells (KRAS G12C mutant); assay: MIA PaCa-2 cell anti-proliferation (CellTiter-Glo); assay type: cell-based; details: Homo sapiens
Description: The number of viable cells was determined using the CellTiter-Glo® assay to evaluate the anti-proliferation efficacy of compounds. […] The compounds were serially diluted 4-fold in DMSO to obtain 9 concentrations, and then further diluted with DMEM (10% FBS+2.5% horse serum+1% penicillin/streptomycin) cell culture medium to obtain the working solutions (2×), 15 μL of each working solution was added to the cell culture supernatant in each well, and the cells were further incubated for 3 days at 37° C. with 5% CO2. The plate was then equilibrated with CellTiter-Glo® reagent at room temperature (25° C.) for 30 minutes. After adding 25 μL of CellTiter-Glo®, reagent, the cells were thoroughly mixed with the CellTiter-Glo® reagent using a microplate shaker for 2 minutes, and then incubated at room temperature for at least 30 minutes. […] Data were analyzed using GraphPad Prism for IC50 values (Note: The negative control refers to the group without inhibitor).

[3] = test system: MIA PaCa-2-AMGR drug-resistant cell line; assay: MIA PaCa-2-AMGR drug-resistant cell proliferation inhibitory activity test; assay type: cell-based; details: for IC50: 72 h, MIA PaCa-2-AMGR drug-resistant cells, 3 days incubation, CellTiter-Glo
Description: Test Example 7: Generation of MIA PaCa-2-AMGR drug-resistant cell line
(§1) MIA PaCa-2 cells were seeded and cultured at 50 to 70% confluence in six-well plate with DMEM (10% FBS+2.5% horse serum) medium at 37° C. with 5% CO2. AMG510 was added for induction at three starting concentrations of 1 nM, 10 nM and 50 nM, and the medium containing the same concentration of AMG510 was replaced every 3 days. Cells were passaged once they reached confluence. After every two passages at a given concentration of drug, the concentration was increased in a 3-fold increment until final concentrations of 1 μM for AMG510 was achieved.
(§2) MIA PaCa-2-AMGR cells in logarithmic growth phase were collected and seeded into a clear-bottom 96-well plate at a density of 4×10^3 cells per well in 80 μL of medium, and then incubated overnight at 37° C. with 5% CO2. The compounds were serially diluted 5-fold in DMSO to obtain 8 concentrations, and then further diluted with DMEM (10% FBS+2.5% horse serum) cell culture medium to obtain the working solutions (5×), 20 μL of each working solution was added to the cell culture supernatant in each well, and the plate was further incubated for 3 days at 37° C. with 5% CO2. The plate was then equilibrated with CellTiter-Glo® reagent at room temperature (25° C.) for 10-30 minutes. After aspirating 50 μL of the medium, 50 μL of CellTiter-Glo® reagent was added. The cells were thoroughly mixed with the CellTiter-Glo® reagent using a microplate shaker for 2 minutes, and then incubated at room temperature for 10 minutes. The 96-well plate was placed in a multi-mode microplate reader to record the luminescence values (RLU).
(§3) The inhibitory rate was calculated using the following formula: […]
Data were analyzed using GraphPad Prism for IC50 values (Note: The negative control refers to the group without inhibitor) The data were presented m Table 9

PI3Kα = PI3Kα (Homo sapiens (Human), UniProt P42336); assay: Inhibition of PI3Kα efficacy assay (ADP-Glo kinase assay); assay type: biochemical; details: read-out: PI3Kα inhibitory activity (IC50)
PI3Kα, sequence (P42336 whole entry): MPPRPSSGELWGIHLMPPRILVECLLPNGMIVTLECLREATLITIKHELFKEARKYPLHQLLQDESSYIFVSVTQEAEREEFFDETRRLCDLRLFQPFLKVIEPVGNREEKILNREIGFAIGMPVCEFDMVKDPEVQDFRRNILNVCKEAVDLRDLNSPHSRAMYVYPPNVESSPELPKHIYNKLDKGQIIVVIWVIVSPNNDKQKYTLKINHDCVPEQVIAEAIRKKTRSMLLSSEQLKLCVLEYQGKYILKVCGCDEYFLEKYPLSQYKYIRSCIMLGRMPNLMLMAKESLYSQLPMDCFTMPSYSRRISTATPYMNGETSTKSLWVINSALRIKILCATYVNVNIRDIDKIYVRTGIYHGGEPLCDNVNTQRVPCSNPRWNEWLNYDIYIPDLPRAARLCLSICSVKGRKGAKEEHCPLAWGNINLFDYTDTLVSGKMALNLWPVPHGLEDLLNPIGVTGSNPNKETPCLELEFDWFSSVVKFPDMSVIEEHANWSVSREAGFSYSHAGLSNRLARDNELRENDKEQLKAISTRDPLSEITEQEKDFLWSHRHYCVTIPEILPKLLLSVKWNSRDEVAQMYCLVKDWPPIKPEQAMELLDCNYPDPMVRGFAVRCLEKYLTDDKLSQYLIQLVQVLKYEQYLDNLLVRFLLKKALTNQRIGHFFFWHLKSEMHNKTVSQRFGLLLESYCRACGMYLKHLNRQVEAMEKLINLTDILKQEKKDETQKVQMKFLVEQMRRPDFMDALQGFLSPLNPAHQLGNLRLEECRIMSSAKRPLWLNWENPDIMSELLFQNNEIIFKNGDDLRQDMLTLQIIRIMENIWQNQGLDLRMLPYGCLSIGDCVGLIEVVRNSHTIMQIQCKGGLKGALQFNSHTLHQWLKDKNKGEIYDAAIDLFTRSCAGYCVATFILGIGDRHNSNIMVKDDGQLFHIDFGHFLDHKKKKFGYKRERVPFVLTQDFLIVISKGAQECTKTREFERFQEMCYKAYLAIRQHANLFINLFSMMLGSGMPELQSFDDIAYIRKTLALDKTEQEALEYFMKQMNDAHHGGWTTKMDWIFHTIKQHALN
PI3Kα, sequence (P27986 whole entry partner): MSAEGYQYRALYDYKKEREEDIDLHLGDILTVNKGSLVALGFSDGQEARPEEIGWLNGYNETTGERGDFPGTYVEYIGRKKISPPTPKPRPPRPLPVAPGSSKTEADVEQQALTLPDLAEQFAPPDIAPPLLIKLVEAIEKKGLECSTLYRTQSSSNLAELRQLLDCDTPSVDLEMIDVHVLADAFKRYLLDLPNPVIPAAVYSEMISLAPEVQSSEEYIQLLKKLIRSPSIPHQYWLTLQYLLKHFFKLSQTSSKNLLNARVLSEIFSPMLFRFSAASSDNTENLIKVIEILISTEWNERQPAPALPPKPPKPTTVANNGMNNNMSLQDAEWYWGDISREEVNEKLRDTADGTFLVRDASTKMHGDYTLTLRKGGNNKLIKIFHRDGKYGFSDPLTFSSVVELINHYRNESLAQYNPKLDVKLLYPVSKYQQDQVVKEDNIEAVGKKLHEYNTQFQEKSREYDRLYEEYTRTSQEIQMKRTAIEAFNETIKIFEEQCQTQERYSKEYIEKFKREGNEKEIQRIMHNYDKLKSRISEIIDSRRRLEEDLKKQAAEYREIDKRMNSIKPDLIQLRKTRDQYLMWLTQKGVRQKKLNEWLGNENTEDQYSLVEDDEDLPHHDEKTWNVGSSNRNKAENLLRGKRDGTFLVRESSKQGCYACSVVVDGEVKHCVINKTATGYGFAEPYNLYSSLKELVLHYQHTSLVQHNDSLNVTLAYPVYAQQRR
In short: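 ADP-Glo luminescent detection of ADP from PI3Kα acting on PI substrate with ATP, 60 min at RT; compounds in 8-point five-fold serial dilution from 2 mM DMSO stock. IC50 from four-parameter variable-slope fit.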

PI3Kδ = PI3Kδ (Homo sapiens (Human), UniProt O00329); assay: Inhibition of PI3Kδ efficacy assay (ADP-Glo kinase assay); assay type: biochemical; details: read-out: PI3Kδ inhibitory activity (IC50)
PI3Kδ, sequence (O00329 whole entry): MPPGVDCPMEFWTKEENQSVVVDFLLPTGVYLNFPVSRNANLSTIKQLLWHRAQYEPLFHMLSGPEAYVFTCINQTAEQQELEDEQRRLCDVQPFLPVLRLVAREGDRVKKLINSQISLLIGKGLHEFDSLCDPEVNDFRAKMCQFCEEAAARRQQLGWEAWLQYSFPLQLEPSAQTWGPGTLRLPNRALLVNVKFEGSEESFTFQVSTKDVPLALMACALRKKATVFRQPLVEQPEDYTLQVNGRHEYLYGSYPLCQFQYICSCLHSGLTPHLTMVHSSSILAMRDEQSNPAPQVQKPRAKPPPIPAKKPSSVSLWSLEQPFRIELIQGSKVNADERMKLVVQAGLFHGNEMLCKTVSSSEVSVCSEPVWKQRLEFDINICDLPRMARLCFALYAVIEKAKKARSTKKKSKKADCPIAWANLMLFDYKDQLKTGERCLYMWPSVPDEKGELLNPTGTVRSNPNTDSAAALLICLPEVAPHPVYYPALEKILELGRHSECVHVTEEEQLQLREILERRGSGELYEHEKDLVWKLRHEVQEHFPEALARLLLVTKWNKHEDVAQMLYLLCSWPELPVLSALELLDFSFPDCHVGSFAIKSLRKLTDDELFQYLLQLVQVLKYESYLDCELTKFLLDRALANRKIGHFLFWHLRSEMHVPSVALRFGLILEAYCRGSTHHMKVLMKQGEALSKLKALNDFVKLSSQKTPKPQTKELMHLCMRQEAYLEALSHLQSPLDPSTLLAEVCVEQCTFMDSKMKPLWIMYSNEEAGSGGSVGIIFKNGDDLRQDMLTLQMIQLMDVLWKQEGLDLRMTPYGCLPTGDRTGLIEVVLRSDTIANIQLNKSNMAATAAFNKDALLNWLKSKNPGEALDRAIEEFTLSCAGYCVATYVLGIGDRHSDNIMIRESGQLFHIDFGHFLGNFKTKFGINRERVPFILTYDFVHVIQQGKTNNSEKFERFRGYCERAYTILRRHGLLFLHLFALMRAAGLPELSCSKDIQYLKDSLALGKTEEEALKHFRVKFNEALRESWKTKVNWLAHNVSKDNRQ
PI3Kδ, sequence (P27986 whole entry partner): as the sequence (P27986 whole entry partner) above
In short: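 Luminescent ADP-Glo readout of PI3Kδ: after a 60 min RT reaction with PI/ATP substrate, ATP depletion (40 min) and ADP detection (40 min) steps followed. Compounds tested as eight five-fold serial dilutions; inhibition rates fitted to log(inhibitor) vs. response, variable slope, for IC50.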

[4] = test system: NCI-H358-AMGR drug-resistant cell line; assay: NCI-H358-AMGR drug-resistant cell proliferation inhibitory activity test; assay type: cell-based; details: for IC50: 72 h, NCI-H358-AMGR drug-resistant cells, 3 days incubation, CellTiter-Glo
Description: Test Example 6t Generation of NCI-H358-AMGR Drug-Resistant Cell Line
as §1, with “NCI-H358 cells” for “MIA PaCa-2 cells”, “with RPMI-640” for “with DMEM”, “(10% FBS)” for “(10% FBS+2.5% horse serum)”, “with 5%4” for “with 5%”, “After every,” for “After every”, “a 3-old” for “a 3-fold”
as §2, with “NCI-H358-AMGR cells” for “MIA PaCa-2-AMGR cells”, “with RPMI-640)” for “with DMEM”, “(10% FBS)” for “(10% FBS+2.5% horse serum)”, “of CellTiter-Glo®,” for “of CellTiter-Glo®”, “the CellTiter-Glo®,” for “the CellTiter-Glo®”, “The […]” for “The 96-well”
as §3
Data were analyzed using GraphPad Prism for IC50 values (Note: The negative control refers to the group without inhibitor).

[5] = 72 h, MIA Paca-2 cells, 3 days, Table 7, read-out: MIA PaCa-2 (IC50)
[6] = MIA PaCa-2, 72 h, read-out: MIA PaCa-2 (IC50, nM)

Row | SMILES | IC50 [1] [nM] | IC50 [2, 5] [nM] | IC50 (PI3Kα; Table 4) [nM] | also measured
1 | COc1ncc(-c2ccc3ncnc(N4CCC5(CN(C(=O)/C=C/C(C)=O)C5)C4)c3c2)cc1NS(=O)(=O)c1ccc(F)cc1F [Example 13, (E)-2,4-difluoro-N-(2-methoxy-5-(4-(2-(4-oxopent-2-enoyl)-2,6-diazaspiro[3.4]octan-4-yl)quinazolin-6-yl)pyridin-3-yl)benzenesulfonamide] | 73.3 | 144 |  | IC50 [3]: 433 nM
2 | C=C(C(=O)N1CCN(c2ncnc3ccc(-c4cnc(OC)c(NS(=O)(=O)c5ccc(F)cc5F)c4)cc23)CC1)C(C)O (stereo not shown) [Example 167, 2,4-difluoro-N-(5-(4-(4-(3-hydroxy-2-methylenebutanoyl)piperazin-1-yl)quinazolin-6-yl)-2-methoxypyridin-3-yl)benzenesulfonamide] | 36.5 |  | 2.2 | IC50 (PI3Kδ; Table 4): 11.8 nM; IC50 [2, 6]: 112 nM; IC50 [4]: 73 nM
3 | C=CC(=O)N1CCN(c2nc(=O)n(-c3c(C)ccnc3C(C)C)c3nc(-c4c(O)cccc4F)c(F)cc23)[C@@H](C)C1 [AMG-510, reference compound] |  |  |  | inhibition at 10 µM ([4]; 10 μM, NCI-H358-AMGR, read-out: inhibition rate at the maximum dose): ≤ 50%; IC50 [4]: > 10000 nM; inhibition at 10 µM ([3]; 10 μM, MIA PaCa-2-AMGR, read-out: inhibition rate at the maximum dose): < 50%; IC50 [3]: > 10000 nM
4 | C=C(F)C(=O)N1CCN(c2ncnc3ccc(-c4cnc(OC)c(NS(=O)(=O)c5ccc(F)cc5F)c4)cc23)CC1 [Example 59, 2,4-difluoro-N-(5-(4-(4-(2-fluoroacryloyl)piperazin-1-yl)quinazolin-6-yl)-2-methoxypyridin-3-yl)benzenesulfonamide] | 30.6 |  |  | IC50 (PI3Kα; Table 2): 3.3 nM; IC50 (PI3Kδ; Table 2): 13.1 nM; IC50 [3]: 141 nM
5 | COc1ncc(-c2ccc3ncnc(N4CCN(C(=O)/C=C/C(C)=O)CC4)c3c2)cc1NS(=O)(=O)c1cccc2cccc(Cl)c12 [Example 96, (E)-8-chloro-N-(2-methoxy-5-(4-(4-(4-oxopent-2-enoyl)piperazin-1-yl)quinazolin-6-yl)pyridin-3-yl)naphthalene-1-sulfonamide] | 35.8 | 90 |  | IC50 (PI3Kα; Table 2): 1 nM; IC50 (PI3Kδ; Table 2): 171 nM
6 | COc1ncc(-c2ccc3ncnc(N4CCN(C(=O)/C=C/C(C)=O)CC4)c3c2)cc1S(=O)(=O)Nc1ccc(F)cc1F [Example 166, (E)-N-(2,4-difluorophenyl)-2-methoxy-5-(4-(4-(4-oxopent-2-enoyl)piperazin-1-yl)quinazolin-6-yl)pyridine-3-sulfonamide] | 344 | 369 | 16.1 | IC50 (PI3Kδ; Table 4): 22.3 nM
7 | COc1ncc(-c2cc(C(F)(F)F)c3ncnc(N4CCN(C(=O)/C=C/C(C)=O)CC4)c3c2)cc1NS(=O)(=O)c1ccc(F)cc1F [Example 243, (E)-2,4-difluoro-N-(2-methoxy-5-(4-(4-(4-oxopent-2-enoyl)piperazin-1-yl)-8-(trifluoromethyl)quinazolin-6-yl)pyridin-3-yl)benzenesulfonamide] | 720 |  | 838 | IC50 [2, 6]: 393 nM
8 | C=CC(=O)N1CCN(c2ncnc3ccc(-c4cnc(OC)c(NS(C)(=O)=O)c4)cc23)CC1 [Example 4, N-(5-(4-(4-acryloylpiperazin-1-yl)quinazolin-6-yl)-2-methoxypyridin-3-yl)methanesulfonamide] | 494 | 494 |  | IC50 (PI3Kα; Table 1): 9.5 nM; IC50 (PI3Kδ; Table 1): 12 nM
9 | COc1ncc(-c2ccc3ncnc(C4=CCN(C(=O)/C=C/C(C)=O)CC4)c3n2)cc1NS(=O)(=O)c1ccc(F)cc1F [Example 240, (E)-2,4-difluoro-N-(2-methoxy-5-(4-(1-(4-oxopent-2-enoyl)-1,2,3,6-tetrahydropyridin-4-yl)pyrido[3,2-d]pyrimidin-6-yl)pyridin-3-yl)benzenesulfonamide] | 48.7 | 55.2 | 5 | 

Continued, in another order:

Row | IC50 [1] [nM] | IC50 [2, 5] [nM] | IC50 (PI3Kα; Table 4) [nM] | SMILES | also measured
10 | 35.1 | 29.1 | 0.49 | COc1ncc(-c2ccc3ncnc(N4CCN(C(=O)/C=C/C(C)=O)CC4)c3n2)cc1NS(=O)(=O)c1sc(C)nc1C [Example 222, (E)-N-(2-methoxy-5-(4-(4-(4-oxopent-2-enoyl)piperazin-1-yl)pyrido[3,2-d]pyrimidin-6-yl)pyridin-3-yl)-2,4-dimethyl-thiazole-5-sulfonamide] | IC50 (PI3Kδ; Table 4): 11.7 nM
11 | 135 | 94.4 |  | COc1ncc(-c2ccc3ncnc(N4CCN(C(=O)/C=C/C(C)=O)CC4)c3n2)cc1NS(=O)(=O)c1cnccc1C [Example 223, (E)-N-(2-methoxy-5-(4-(4-(4-oxopent-2-enoyl)piperazin-1-yl)pyrido[3,2-d]pyrimidin-6-yl)pyridin-3-yl)-4-methyl-pyridine-3-sulfonamide] | IC50 [4]: 85.2 nM; IC50 [3]: 63.1 nM
12 | 12.8 | 10.4 | 1.7 | C=C(F)C(=O)N1CCN(c2ncnc3ccc(-c4cnc(OC)c(NS(=O)(=O)c5c(F)cccc5F)c4)nc23)CC1 [Example 211, 2,6-difluoro-N-(5-(4-(4-(2-fluoroacryloyl)piperazin-1-yl)pyrido[3,2-d]pyrimidin-6-yl)-2-methoxy-pyridin-3-yl)benzene-sulfonamide] | 
13 | 228 | 202 | 0.65 | CSc1ncc(-c2ccc3ncnc(N4CCN(C(=O)/C=C/C(C)=O)CC4)c3c2)cc1NS(=O)(=O)c1ccc(F)cc1F [Example 182, (E)-2,4-difluoro-N-(2-(methylthio)-5-(4-(4-(4-oxopent-2-enoyl)piperazin-1-yl)quinazolin-6-yl)pyridin-3-yl)benzene-sulfonamide] | 
14 | 485 | 485 |  | C=CC(=O)N1CCC(Nc2ncnc3ccc(-c4cnc(Cl)c(NS(=O)(=O)c5ccc(F)cc5F)c4)nc23)CC1 [Example 2, N-(5-(4-((1-acryloylpiperidin-4-yl)amino)pyrido[3,2-d]pyrimidin-6-yl)-2-chloropyridin-3-yl)-2,4-difluorobenzenesulfonamide] | IC50 (PI3Kα; Table 1): 7.3 nM; IC50 (PI3Kδ; Table 1): 41.8 nM
